Laboratory results reported in patent US7498409B2, “Screening assay for TLR7, TLR8 and TLR9 agonists and antagonists” (Schering Corporation, priority 2005, dated 2009).
One block for each compound: values may come before it.

Key:
wild-type TLR8 = target: T1, wild-type TLR8 (Homo sapiens, UniProt Q9NR97); test: NFκB-luciferase reporter assay in transfected HEK 293 cells, wild-type TLR8; assay type: cell-based
T1 construct: printed for the mutant only, inferred for the wild type (N); expressed in transfected cells; host or cells: HEK 293
T1 sequence (Q9NR97 1-1059 isoform Q9NR97-2): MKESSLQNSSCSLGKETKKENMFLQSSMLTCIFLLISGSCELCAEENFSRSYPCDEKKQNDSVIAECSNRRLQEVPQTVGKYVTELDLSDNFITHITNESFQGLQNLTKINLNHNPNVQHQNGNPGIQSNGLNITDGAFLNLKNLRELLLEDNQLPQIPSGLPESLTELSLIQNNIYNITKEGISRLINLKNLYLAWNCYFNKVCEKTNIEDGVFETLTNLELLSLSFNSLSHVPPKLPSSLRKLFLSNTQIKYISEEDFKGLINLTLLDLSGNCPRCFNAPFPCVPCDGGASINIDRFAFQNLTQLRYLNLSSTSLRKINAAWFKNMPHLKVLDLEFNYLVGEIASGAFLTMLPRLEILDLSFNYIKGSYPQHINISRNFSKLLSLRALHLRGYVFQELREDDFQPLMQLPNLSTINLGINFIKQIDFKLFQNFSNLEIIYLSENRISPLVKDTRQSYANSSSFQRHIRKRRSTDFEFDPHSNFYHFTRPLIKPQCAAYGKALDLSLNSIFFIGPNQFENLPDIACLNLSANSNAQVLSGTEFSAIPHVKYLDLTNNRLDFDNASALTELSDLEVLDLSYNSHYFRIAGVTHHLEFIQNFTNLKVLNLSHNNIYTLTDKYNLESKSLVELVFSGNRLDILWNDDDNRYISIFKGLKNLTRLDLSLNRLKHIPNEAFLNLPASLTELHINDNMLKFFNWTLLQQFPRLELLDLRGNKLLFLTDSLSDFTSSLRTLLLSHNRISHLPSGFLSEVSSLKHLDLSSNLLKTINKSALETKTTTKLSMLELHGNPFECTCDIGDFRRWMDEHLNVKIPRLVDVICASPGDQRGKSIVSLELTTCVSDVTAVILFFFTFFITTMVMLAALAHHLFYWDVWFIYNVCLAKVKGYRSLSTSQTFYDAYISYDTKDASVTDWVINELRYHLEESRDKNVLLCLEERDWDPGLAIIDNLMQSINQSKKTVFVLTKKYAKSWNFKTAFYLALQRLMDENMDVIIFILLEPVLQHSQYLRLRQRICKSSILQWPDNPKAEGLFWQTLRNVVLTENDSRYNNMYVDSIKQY
Description: (§1) Wells without agonist served as negative controls.

[1] = target: T2, mutant TLR8 containing a deletion in the second LRR (Homo sapiens, UniProt Q9NR97, DEL100-104); test: NFκB-luciferase reporter assay in transfected HEK 293 cells, mutant TLR8 (pCMVhuTLR8Δ2); assay type: cell-based; details: HEK 293, 5 h
T2 construct: expressed in transfected cells; host or cells: HEK 293
T2 sequence (Q9NR97 with tags, fused parts or gaps DEL100-104): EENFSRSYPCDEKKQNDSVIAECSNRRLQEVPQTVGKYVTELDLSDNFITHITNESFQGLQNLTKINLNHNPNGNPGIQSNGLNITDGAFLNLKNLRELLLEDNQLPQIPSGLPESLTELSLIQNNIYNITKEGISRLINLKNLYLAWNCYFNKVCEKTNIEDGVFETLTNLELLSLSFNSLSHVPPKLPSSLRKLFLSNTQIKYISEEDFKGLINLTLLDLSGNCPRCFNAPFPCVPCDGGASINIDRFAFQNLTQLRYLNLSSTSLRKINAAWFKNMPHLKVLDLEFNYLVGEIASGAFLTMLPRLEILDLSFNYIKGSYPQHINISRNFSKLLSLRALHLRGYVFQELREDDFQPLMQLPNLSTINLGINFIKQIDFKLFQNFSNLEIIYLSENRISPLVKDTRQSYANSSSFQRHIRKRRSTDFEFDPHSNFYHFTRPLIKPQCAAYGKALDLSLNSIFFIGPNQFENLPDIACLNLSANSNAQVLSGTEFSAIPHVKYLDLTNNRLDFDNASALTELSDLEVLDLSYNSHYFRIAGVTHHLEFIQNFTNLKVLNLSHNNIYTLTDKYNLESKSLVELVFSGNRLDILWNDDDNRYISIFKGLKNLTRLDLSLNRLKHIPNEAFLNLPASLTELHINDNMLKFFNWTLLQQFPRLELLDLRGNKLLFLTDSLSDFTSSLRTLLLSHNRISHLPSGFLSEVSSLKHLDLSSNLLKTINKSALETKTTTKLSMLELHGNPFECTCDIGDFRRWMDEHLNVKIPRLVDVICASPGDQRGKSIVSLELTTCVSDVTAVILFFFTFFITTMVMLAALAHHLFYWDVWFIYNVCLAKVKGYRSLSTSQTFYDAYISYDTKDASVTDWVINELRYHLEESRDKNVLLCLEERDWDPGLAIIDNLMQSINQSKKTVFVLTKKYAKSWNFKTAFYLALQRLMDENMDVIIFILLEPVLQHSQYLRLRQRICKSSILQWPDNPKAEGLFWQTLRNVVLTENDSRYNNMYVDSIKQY
Description: The mutation was confirmed by DNA sequencing.
as §1

wild-type TLR7 = target: T3, wild-type TLR7 (Homo sapiens, UniProt Q9NYK1); test: NFκB-luciferase reporter assay in transfected HEK 293 cells, wild-type TLR7; assay type: cell-based
T3 construct: expressed in transfected cells; host or cells: HEK 293
T3 sequence (Q9NYK1 27-1049): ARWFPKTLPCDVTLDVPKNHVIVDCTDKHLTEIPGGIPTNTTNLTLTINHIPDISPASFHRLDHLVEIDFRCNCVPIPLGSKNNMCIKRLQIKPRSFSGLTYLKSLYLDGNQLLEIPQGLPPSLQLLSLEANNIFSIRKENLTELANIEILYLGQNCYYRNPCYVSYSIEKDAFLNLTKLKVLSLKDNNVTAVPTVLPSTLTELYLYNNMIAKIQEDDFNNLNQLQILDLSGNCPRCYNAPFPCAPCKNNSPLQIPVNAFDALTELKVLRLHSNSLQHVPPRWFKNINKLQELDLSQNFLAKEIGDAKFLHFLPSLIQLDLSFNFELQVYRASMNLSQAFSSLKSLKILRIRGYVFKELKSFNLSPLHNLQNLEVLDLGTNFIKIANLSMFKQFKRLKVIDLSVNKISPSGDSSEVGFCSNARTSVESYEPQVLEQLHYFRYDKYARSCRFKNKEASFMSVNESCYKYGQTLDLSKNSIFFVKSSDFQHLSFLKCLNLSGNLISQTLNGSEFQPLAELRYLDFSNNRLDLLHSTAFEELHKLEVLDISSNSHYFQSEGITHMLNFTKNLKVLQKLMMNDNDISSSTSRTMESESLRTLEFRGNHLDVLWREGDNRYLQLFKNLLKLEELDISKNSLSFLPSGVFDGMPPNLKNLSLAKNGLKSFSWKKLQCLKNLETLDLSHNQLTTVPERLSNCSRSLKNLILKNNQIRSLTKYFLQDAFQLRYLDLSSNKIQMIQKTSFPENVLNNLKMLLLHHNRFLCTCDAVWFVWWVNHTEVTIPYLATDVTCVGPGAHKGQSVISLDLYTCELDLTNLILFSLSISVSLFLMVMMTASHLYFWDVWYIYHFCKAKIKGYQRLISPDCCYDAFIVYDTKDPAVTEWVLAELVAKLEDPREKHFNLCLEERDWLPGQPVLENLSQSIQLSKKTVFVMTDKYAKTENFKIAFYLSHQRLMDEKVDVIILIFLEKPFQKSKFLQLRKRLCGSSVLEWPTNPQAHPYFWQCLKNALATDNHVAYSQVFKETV
Description: as §1

[2] = target: T4, mutant TLR7 containing a deletion in the second LRR (Homo sapiens, UniProt Q9NYK1, DEL102-106); test: NFκB-luciferase reporter assay in transfected HEK 293 cells, mutant TLR7 (pCMVhuTLR7Δ2); assay type: cell-based; set-up: fold lower concentration sufficient for full activation of mutant TLR7 versus wild-type TLR7: dose or concentration left out as unconfirmed
T4 construct: expressed in transfected cells; host or cells: HEK 293
T4 sequence (Q9NYK1 with tags, fused parts or gaps DEL102-106): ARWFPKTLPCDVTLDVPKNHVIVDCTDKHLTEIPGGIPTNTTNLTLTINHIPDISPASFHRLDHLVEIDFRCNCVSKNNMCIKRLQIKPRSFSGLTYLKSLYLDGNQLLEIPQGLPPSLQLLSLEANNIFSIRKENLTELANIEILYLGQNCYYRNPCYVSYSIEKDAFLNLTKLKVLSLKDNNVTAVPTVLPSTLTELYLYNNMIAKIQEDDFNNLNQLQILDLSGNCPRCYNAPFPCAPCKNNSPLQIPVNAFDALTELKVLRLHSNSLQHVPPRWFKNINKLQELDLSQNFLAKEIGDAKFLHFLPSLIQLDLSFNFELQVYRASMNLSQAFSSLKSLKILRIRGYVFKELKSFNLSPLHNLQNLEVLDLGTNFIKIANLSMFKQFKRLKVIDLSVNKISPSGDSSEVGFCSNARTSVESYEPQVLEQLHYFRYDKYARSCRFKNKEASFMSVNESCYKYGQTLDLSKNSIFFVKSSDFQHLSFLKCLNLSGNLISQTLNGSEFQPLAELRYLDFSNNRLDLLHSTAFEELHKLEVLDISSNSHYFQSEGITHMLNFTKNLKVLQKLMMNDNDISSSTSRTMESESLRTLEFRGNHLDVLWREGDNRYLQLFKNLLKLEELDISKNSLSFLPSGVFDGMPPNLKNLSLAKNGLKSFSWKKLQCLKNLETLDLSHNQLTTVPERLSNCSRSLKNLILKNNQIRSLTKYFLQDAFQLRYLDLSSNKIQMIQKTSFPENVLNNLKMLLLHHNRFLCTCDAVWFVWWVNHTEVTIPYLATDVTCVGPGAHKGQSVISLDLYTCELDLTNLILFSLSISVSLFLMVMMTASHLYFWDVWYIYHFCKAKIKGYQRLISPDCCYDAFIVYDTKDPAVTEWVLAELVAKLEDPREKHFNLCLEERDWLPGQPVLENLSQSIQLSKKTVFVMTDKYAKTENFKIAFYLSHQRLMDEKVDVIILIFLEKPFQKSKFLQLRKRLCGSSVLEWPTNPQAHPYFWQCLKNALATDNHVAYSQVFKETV
Description: (§2) ID NO: 11) and the antisense primer [NT] ID NO: 12). […] The mutation was confirmed by DNA sequencing. […] Wells without agonist served as negative controls.

[3] = tested on: mutant TLR7 containing a deletion in the second LRR; test: as above; assay type: cell-based, human; set-up: fold lower concentration sufficient for full activation of mutant TLR7 versus wild-type TLR7: dose or concentration left out as unconfirmed
Description: as §2

activation of wild-type TLR8 (luciferase) (wild-type TLR8; 4.5 mM uridine, HEK 293, 5 h): 3 fold | activation of mutant TLR8 (luciferase) ([1]; 4.5 mM uridine): 15 fold
SMILES: O=c1ccn([C@@H]2O[C@H](CO)[C@@H](O)[C@H]2O)c(=O)[nH]1 [uridine]

activation of wild-type TLR7 (luciferase activity) (wild-type TLR7; 10 nM R848, HEK 293, 5 h): did not result in significant activation | concentration giving close-to-maximum activation of wild-type TLR7 (wild-type TLR7; HEK 293, NFκB-luciferase): 1 µM | induction of luciferase activity ([2]; 10 nM R848, HEK 293, 5 h, vs medium alone): 6 fold | concentration required to achieve 5-fold induction of luciferase (wild-type TLR8; HEK 293, NFκB-luciferase): at least 0.5 μM | induction of luciferase ([1]; 50 nm of R848): ~10 fold
SMILES: CCOCc1nc2c(N)nc3ccccc3c2n1CC(C)(C)O [R848]
fold lower concentration sufficient for full activation of mutant TLR7 versus wild-type TLR7 ([3]; compared with for wild-type TLR7): 10 fold

concentration at which wild-type TLR7 is activated (wild-type TLR7; HEK 293, NFκB-luciferase): greater than 0.5 mM | concentration achieving the same activation with mutant TLR7 ([2]; same activation as wild-type TLR7 at >0.5 mM): 0.1 mM
SMILES: C=CCn1c(=O)n([C@@H]2O[C@H](CO)[C@@H](O)[C@H]2O)c2nc(N)[nH]c(=O)c21 [loxoribine]
fold lower concentration for same activation of mutant TLR7 versus wild-type TLR7 ([3]; 0.1 mM versus 0.5 mM): 5 fold
